From patent US12698324B2, “Cystic lymphangioma treatment drug” (National University Corporation University of Toyama, priority 2020, dated 2026) come the findings set out here.

SMILES strings stand for the structures.

The assay deals with cystic lymphangioma of PDGFRβ knockout mice. The assay is described as follows: Therapy experiment in cystic lymphangioma of PDGFRβ knockout mice (diameter of LYVE1-positive lymph vessels). Type of assay: in vivo, mouse. Particulars: intraperitoneal three times a week (Erlotinib 50 mg/kg; antibody 5 μg/body), compared with the group of PDGFRβ knockout mice without treatment. On the procedure:
To PDGFRβ knockout mice, a neutralizing antibody against amphiregulin (AF989, R&D Systems Inc.) and Erlotinib having EGFR inhibitory activity (Selleck Biotech) were administered for the purpose of treating cystic lymphangioma. The neutralizing antibody against amphiregulin was dissolved in PBS at 25 μg/mL and administered intraperitoneally at 5 μg/body three times a week. Erlotinib was dissolved in DMSO at 50 mg/mL and administered intraperitoneally at 50 mg/kg three times a week. A group of PDGFRβ knockout mice without treatment and a control group of mice in which PDGFRβ was not knocked out were also prepared.
The tissues of PDGFRβ knockout mice were fixed with paraformaldehyde (PFA). Paraffin sections were prepared using fixed samples. The tissue sections were washed with a buffer and antigen-retrieved by heating in a microwave oven for 5 minutes using a commercial retrieval solution. Next, each sample was washed with a buffer solution and the tissues or the cells were subjected to a commercial blocking solution (room temperature, one hour).
Next, each sample was washed with a buffer and subjected to an anti-LYVE1 antibody (Abcam, a primary antibody) at optimum concentration (4° C., overnight). […] The obtained sample was observed and photographed with a fluorescence microscope.
The diameter of each lymph vessel was measured with ImageJ imaging software based on the photographed images. […]

`C#Cc1cccc(Nc2ncnc3cc(OCCOC)c(OCCOC)cc23)c1` [Erlotinib]: the “diameter of dilated lymph vessels” value was “significantly reduced”.
